Experimental findings from patent US12570655B2, “Cysteine covalent modifiers of AKT1 and uses thereof” (Terremoto Biosciences, Inc., priority 2023, dated 2026) are described below.

Structures are written as SMILES. Where two headings read alike, the source gives them in different places.

Holding throughout (type): cell-based
One assay deals with T1, AKT1 E17K (Homo sapiens, UniProt P31749, E17K).
T1 construct: expressed in transfected cells; host or cells: HEK293
Description: Live cell AKT1 E17K target engagement by NanoBRET competitive probe displacement. The settings on record: HEK293 cells transfected with kinase-NanoLuciferase fusion, 2 h at 37° C. The method, boiled down: (§1)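 HEK293 cells transiently expressing kinase–NanoLuciferase fusions (overnight transfection) were treated with serial compound dilutions plus fluorescent ATP-competitive tracer at ~EC50 concentration for 2 h at 37 °C. BRET ratio E600/E460 measured after substrate and extracellular luciferase inhibitor addition; IC50 from log(inhibitor)–response Hill fit.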

A further assay has as its target T2, AKT2 (Homo sapiens, UniProt P31751).
T2 construct: expressed in transfected cells; host or cells: HEK293
Description: Live cell AKT2 target engagement by NanoBRET competitive probe displacement. The settings on record: HEK293 cells transfected with kinase-NanoLuciferase fusion, 2 h at 37° C. Put shortly: as §1

In the next assay the target is T3, AKT1 WT (Homo sapiens, UniProt P31749).
T3 construct: expressed in transfected cells; host or cells: HEK293
The assay is described as follows: Live cell AKT1 WT target engagement by NanoBRET competitive probe displacement. The following applies: HEK293 cells transfected with kinase-NanoLuciferase fusion, 2 h at 37° C. Put shortly: as §1

In assay [1] the test system is LAPC4 prostate cancer cells. The assay is described as follows: Antiproliferative effects in LAPC4 cells (CellTiter Glo). The settings on record: LAPC4 cells (AKT1 E17K allele), read-out: LAPC4 proliferation IC50. Put shortly:
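LAPC4 cells were cultured in IMDM with 12% FBS and 1% P/S, seeded at 1,000 cells/well and exposed to compound dilutions in DMSO. After 72 h, intracellular ATP was measured by CellTiter Glo luminescence, and IC50 values came from a log(inhibitor) vs. response Hill fit.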

T1 sequence (P31749 whole entry E17K): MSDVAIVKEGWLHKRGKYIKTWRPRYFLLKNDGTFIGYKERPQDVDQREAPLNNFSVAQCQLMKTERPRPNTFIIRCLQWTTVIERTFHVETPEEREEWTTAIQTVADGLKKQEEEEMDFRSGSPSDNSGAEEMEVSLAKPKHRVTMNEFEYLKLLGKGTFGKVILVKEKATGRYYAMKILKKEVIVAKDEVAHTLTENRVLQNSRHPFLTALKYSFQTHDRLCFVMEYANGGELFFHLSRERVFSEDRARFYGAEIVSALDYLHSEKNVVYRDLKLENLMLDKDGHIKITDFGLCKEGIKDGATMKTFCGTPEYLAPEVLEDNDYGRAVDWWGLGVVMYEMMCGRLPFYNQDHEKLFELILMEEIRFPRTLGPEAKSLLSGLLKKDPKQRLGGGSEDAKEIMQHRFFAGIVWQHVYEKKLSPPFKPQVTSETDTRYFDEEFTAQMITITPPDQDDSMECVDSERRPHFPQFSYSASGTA
T3 sequence (P31749 whole entry): as the sequence (P31749 whole entry E17K) above, with K17E counted along it
T2 sequence (P31751 whole entry): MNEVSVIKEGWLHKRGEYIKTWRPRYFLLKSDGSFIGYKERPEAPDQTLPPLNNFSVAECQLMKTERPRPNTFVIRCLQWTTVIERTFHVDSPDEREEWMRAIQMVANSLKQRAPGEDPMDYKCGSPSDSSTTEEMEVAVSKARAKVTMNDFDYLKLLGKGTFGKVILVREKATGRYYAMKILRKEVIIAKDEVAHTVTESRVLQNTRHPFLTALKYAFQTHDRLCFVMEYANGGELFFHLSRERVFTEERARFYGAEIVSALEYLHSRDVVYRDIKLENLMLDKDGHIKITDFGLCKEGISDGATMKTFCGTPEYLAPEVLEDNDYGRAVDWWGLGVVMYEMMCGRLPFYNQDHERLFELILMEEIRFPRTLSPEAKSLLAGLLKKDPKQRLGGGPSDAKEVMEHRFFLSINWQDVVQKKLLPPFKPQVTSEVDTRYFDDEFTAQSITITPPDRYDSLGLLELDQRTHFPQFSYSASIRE

For `C=CC(=O)N1CCC(N[C@H]2CCc3cc(-n4c(-c5cccnc5N)nc5ccc(-c6ccn(C(F)F)n6)nc54)ccc32)CC1` [Example 107, 1-(4-{[(1S)-5-[2-(2-aminopyridin-3-yl)-5-[1-(difluoromethyl)pyrazol-3-yl]imidazo[4,5-b]pyridin-3-yl]-2,3-dihydro-1H-inden-1-yl]amino}piperidin-1-yl)prop-2-en-1-one], the IC50 at AKT1 E17K is 18.1 nM; at AKT2 it was 192 nM; on AKT1 WT, 6.19 nM; in assay [1] (Homo sapiens, LAPC4, 72 h), 164 nM.
With `C=CC(=O)N1CC2CC[C@H]1CC2N[C@H]1CCc2cc(-n3c(-c4cccnc4N)nc4ccc(-n5cccn5)nc43)ccc21` (single isomer, unassigned) [Example 133, 1-[(1S,4S,5*)-5-{[(1S)-5-[2-(2-aminopyridin-3-yl)-5-(pyrazol-1-yl)imidazo[4,5-b]pyridin-3-yl]-2,3-dihydro-1H-inden-1-yl]amino}-2-azabicyclo[2.2.2]octan-2-yl]prop-2-en-1-one], the IC50 was 13.4 nM at AKT1 E17K, 47 nM on AKT2, 9.71 nM on AKT1 WT and 16.3 nM in assay [1] (72 h).
For `C=CC(=O)N1CCC(N[C@H]2CCc3cc(-n4c(-c5cccnc5N)nc5cc(C(F)(F)F)cnc54)ccc32)CC1` [Example 216, 1-(4-{[(1S)-5-[2-(2-aminopyridin-3-yl)-6-(trifluoromethyl)imidazo[4,5-b]pyridin-3-yl]-2,3-dihydro-1H-inden-1-yl]amino}piperidin-1-yl)prop-2-en-1-one], the IC50 on AKT1 E17K was determined as 140 nM; at AKT2, 352 nM; on AKT1 WT it was 2350 nM; in assay [1] (Homo sapiens, LAPC4, 72 h) it was 3960 nM.
For `C=CC(=O)N1CCC(N[C@H]2CCc3cc(-n4c(-c5cccnc5N)nc5ccc(-n6ccc(C)n6)nc54)ccc32)CC1` [Example 243, 1-(4-{[(1S)-5-[2-(2-aminopyridin-3-yl)-5-(3-methylpyrazol-1-yl)imidazo[4,5-b]pyridin-3-yl]-2,3-dihydro-1H-inden-1-yl]amino}piperidin-1-yl)prop-2-en-1-one] the same measures were 17.3 nM, 98.5 nM, 217 nM and 150 nM.
For the compound `C=CC(=O)N1CCC(N[C@H]2CCc3cc(-n4c(-c5cccnc5N)nc5ccc(-n6cccn6)nc54)ccc32)C(F)C1` (single isomer, unassigned) [Example 106, 1-((3*,4*)-4-(((S)-5-(2-(2-aminopyridin-3-yl)-5-(1H-pyrazol-1-yl)-3H-imidazo[4,5-b]pyridin-3-yl)-2,3-dihydro-1H-inden-1-yl)amino)-3-fluoropiperidin-1-yl)prop-2-en-1-one], the IC50 at AKT1 E17K turned out to be 20.3 nM; at AKT2 it was 120 nM; on AKT1 WT, 3.85 nM; in assay [1] (72 h), 93 nM.
On the same counts, the results for `C=CC(=O)N1CCC(N[C@H]2CCc3cc(-n4c(-c5cccnc5N)nc5ccc(-n6cccn6)nc54)ccc32)C(C)C1` (single isomer, unassigned) [Example 101, 1-((3*,4*)-4-(((S)-5-(2-(2-aminopyridin-3-yl)-5-(1H-pyrazol-1-yl)-3H-imidazo[4,5-b]pyridin-3-yl)-2,3-dihydro-1H-inden-1-yl)amino)-3-methylpiperidin-1-yl)prop-2-en-1-one] are 82.3 nM, 290 nM, 18.3 nM and 270 nM.
With `C=CC(=O)Nc1cc(C(=O)N[C@H]2CCc3cc(-n4c(-c5cccnc5N)nc5ccc(-n6cccn6)nc54)ccc32)ccn1` [Example 11, (S)-2-acrylamido-N-(5-(2-(2-aminopyridin-3-yl)-5-(1H-pyrazol-1-yl)-3H-imidazo[4,5-b]pyridin-3-yl)-2,3-dihydro-1H-inden-1-yl)isonicotinamide], the IC50 on AKT1 E17K came to 7.03 nM; on AKT2, 25.9 nM; at AKT1 WT, 4.29 nM; in assay [1] (Homo sapiens, LAPC4, 72 h), 650 nM.
On the same counts, the results for `C=CC(=O)N1CCC(N[C@@H]2c3ccc(-n4c(-c5cccnc5N)nc5ccc(-n6cccn6)nc54)cc3C[C@@H]2F)CC1` [Example 76, 1-(4-(((1R,2S)-5-(2-(2-aminopyridin-3-yl)-5-(1H-pyrazol-1-yl)-3H-imidazo[4,5-b]pyridin-3-yl)-2-fluoro-2,3-dihydro-1H-inden-1-yl)amino)piperidin-1-yl)prop-2-en-1-one] are 60.1 nM, 232 nM, 23.3 nM and 369 nM.
On the same counts, the results for `CC#CC(=O)N1CCC(N[C@H]2CCc3cc(-n4c(-c5cccnc5N)nc5ccc(-n6cccn6)nc54)ccc32)CC1` [Example 69, 1-(4-{[(1S)-5-[2-(2-aminopyridin-3-yl)-5-(pyrazol-1-yl)imidazo[4,5-b]pyridin-3-yl]-2,3-dihydro-1H-inden-1-yl]amino}piperidin-1-yl)but-2-yn-1-one] are 57.7 nM, 226 nM, 25.3 nM and 358 nM.
For `NC(=O)/C=C/c1ncccc1C(=O)N[C@H]1CCc2cc(-n3c(-c4cccnc4N)nc4ccc(-n5cccn5)nc43)ccc21` [Example 45, N-[(1S)-5-[2-(2-aminopyridin-3-yl)-5-(pyrazol-1-yl)imidazo[4,5-b]pyridin-3-yl]-2,3-dihydro-1H-inden-1-yl]-2-[(1E)-2-carbamoyleth-1-en-1-yl]pyridine-3-carboxamide] the same measures were 68.4 nM, 717 nM, 43 nM and 296 nM.
On to `C=CC(=O)N1CCC(N[C@H]2CCc3cc(-n4c(-c5cccnc5N)nc5ccc(N6CCCOCC6)nc54)ccc32)CC1` [Example 205, 1-(4-{[(1S)-5-[2-(2-aminopyridin-3-yl)-5-(1,4-oxazepan-4-yl)imidazo[4,5-b]pyridin-3-yl]-2,3-dihydro-1H-inden-1-yl]amino}piperidin-1-yl)prop-2-en-1-one], for which the IC50 on AKT1 E17K amounted to 112 nM; on AKT2 it was 835 nM; on AKT1 WT, 1740 nM; in assay [1] (Homo sapiens, LAPC4, 72 h) it was 1190 nM.
As to `C=CC(=O)N1CCC(N[C@H]2CCc3cc(-n4c(-c5cccnc5N)nc5ccc(-n6cccn6)nc54)ccc32)C[C@H]1C` (single isomer, unassigned) [Example 63, 1-((2R,4*)-4-(((S)-5-(2-(2-aminopyridin-3-yl)-5-(1H-pyrazol-1-yl)-3H-imidazo[4,5-b]pyridin-3-yl)-2,3-dihydro-1H-inden-1-yl)amino)-2-methylpiperidin-1-yl)prop-2-en-1-one], the IC50 stood at 47.5 nM at AKT1 E17K, 248 nM on AKT2, 24.1 nM on AKT1 WT and 124 nM in assay [1] (72 h).
For the compound `C=CC(=O)N1CCC12CCC(N[C@H]1CCc3cc(-n4c(-c5cccnc5N)nc5ccc(-n6cccn6)nc54)ccc31)CC2` (stereo partly drawn) [Example 80, 1-(7-{[(1S)-5-[2-(2-aminopyridin-3-yl)-5-(pyrazol-1-yl)imidazo[4,5-b]pyridin-3-yl]-2,3-dihydro-1H-inden-1-yl]amino}-1-azaspiro[3.5]nonan-1-yl)prop-2-en-1-one], the IC50 is 41.7 nM on AKT1 E17K; 166 nM at AKT2; 15.7 nM at AKT1 WT; 120 nM in assay [1] (Homo sapiens, LAPC4, 72 h).
Regarding `C=CC(=O)N1CCN(NC2CCc3cc(-n4c(-c5cccnc5N)nc5ccc(-n6cccn6)nc54)ccc32)CC1` (single isomer, unassigned) [Example 147, (*)-1-(4-((5-(2-(2-aminopyridin-3-yl)-5-(1H-pyrazol-1-yl)-3H-imidazo[4,5-b]pyridin-3-yl)-2,3-dihydro-1H-inden-1-yl)amino)piperazin-1-yl)prop-2-en-1-one], the IC50 on AKT1 E17K amounted to 151 nM; on AKT2, 903 nM; at AKT1 WT it was 32 nM; in assay [1] (72 h) it was 398 nM.
As for `C=CC(=O)N1CC(N[C@H]2CCc3cc(-n4c(-c5cccnc5N)nc5ccc(-n6cccn6)nc54)ccc32)C1` [Example 28, (S)-1-(3-((5-(2-(2-aminopyridin-3-yl)-5-(1H-pyrazol-1-yl)-3H-imidazo[4,5-b]pyridin-3-yl)-2,3-dihydro-1H-inden-1-yl)amino)azetidin-1-yl)prop-2-en-1-one], the IC50 turned out to be 81.6 nM on AKT1 E17K; 250 nM on AKT2; 50.1 nM on AKT1 WT; 216 nM in assay [1] (Homo sapiens, LAPC4, 72 h).
As to `C#CC1CC(N[C@H]2CCc3cc(-n4c(-c5cccnc5N)nc5ccc(-n6cccn6)nc54)ccc32)CCN1C(=O)C=C` (single isomer, unassigned) [Example 111, 1-((2*,4*)-4-(((S)-5-(2-(2-aminopyridin-3-yl)-5-(1H-pyrazol-1-yl)-3H-imidazo[4,5-b]pyridin-3-yl)-2,3-dihydro-1H-inden-1-yl)amino)-2-ethynylpiperidin-1-yl)prop-2-en-1-one], the IC50 at AKT1 E17K is 127 nM; at AKT2, 143 nM; at AKT1 WT, 21.6 nM; in assay [1] (72 h), 343 nM.
On the same counts, the results for `C=CC(=O)N1CCC(N[C@H]2CCc3cc(-n4c(-c5cccnc5N)nc5ccc(-n6cccn6)nc54)ccc32)C(O)C1` (single isomer, unassigned) [Example 141, 1-[(3*,4*)-4-{[(1S)-5-[2-(2-aminopyridin-3-yl)-5-(pyrazol-1-yl)imidazo[4,5-b]pyridin-3-yl]-2,3-dihydro-1H-inden-1-yl]amino}-3-hydroxypiperidin-1-yl]prop-2-en-1-one] are 554 nM, 872 nM, 148 nM and 1700 nM.
